# In patent US20140323457A1, “BETA-O/S/N FATTY ACID BASED COMPOUNDS AS ANTIBACTERIAL AND ANTIPROTOZOAL AGENTS” (LUDWIG-MAXIMILIANS-UNIVERSITÄT MÜNCHEN, priority 2011, published 2014):
# Read-outs that look alike come from different tables or passages of the source.
# Tests used:
# [1] = tested on: S. aureus strain NCTC 8325; assay: liquid culture-based hemolysis assay (secreted hemolysins, sheep red blood cells); assay type: cell-based
# Procedure: The inhibition of hemolysin production has thus been further analysed in liquid bacterial cultures in order to evaluate their potential effects on bacterial growth simultaneously. Besides AVU1Acid, AVU1AAc, AVU1AA and VK273 the following further compounds were tested in liquid bacterial cultures:
# (§1) 1 ml of an appropriate bacterial broth for the standard laboratory S. aureus strain NCTC 8325 were inoculated with 1*10^6 cfu. The cultures were kept overnight at 37° C. with gentle shaking 300 rpm in the presence of compounds AVU1Acid, AVU1AAc, AVU1AA or VK273 according to the present invention at different concentrations or dimethyl sulfoxide (DMSO) as control. Different beta-lactone virulence inhibitors were used as reference compounds. Following overnight incubation the optical density was measured in order to determine the minimal inhibiting concentration (MIC), which is defined as the lowest concentration of an antimicrobial that will inhibit the visible growth of a microorganism after overnight incubation. A 100 μl fraction of the supernatant of the grown bacterial cultures was subsequently analysed for the content of secreted bacterial hemolysins by addition of sheep red blood cells (10% v/v in PBS) and the measurement of the optical density at 410 nm after 30 min incubation at 37° C.
# The following results were obtained in further liquid culture-based hemolysis assays. Since the assays were performed at different times with different charges of sheep red blood cells AVU1 has been tested as a reference substance in each assay. The resulting EC50 values determined for the tested compounds have to be assessed with respect to the EC50 value determined for AVU1.
# [2] = tested on: S. aureus strain NCTC 8325; assay: minimal inhibiting concentration (MIC) in liquid bacterial culture; assay type: cell-based; conditions: overnight 37° C.
# Procedure: as §1
# [3] = tested on: S. aureus NCTC 8325; assay: agar plate-based hemolysis assay on sheep blood agar; assay type: cell-based; conditions: FIG. 1; over night at 37° C.
# Source text: Several compounds of the invention as well as reference compounds have been tested against S. aureus NCTC 8325 on sheep blood agar. Hemolysins are key virulence factors of S. aureus that contribute to the pathogenicity of these bacteria. The production of hemolysins can be easily monitored by lysis of sheep blood and generation of a clear zone around the bacterial colonies on the agar plate. Hemolysins are co-regulated with the majority of important virulence factors and have been qualified in previous studies as a reliable measure of agr quorum sensing regulated virulence (T. Böttcher, S. A. Sieber, J Am Chem Soc 2008, 130, 14400).
# Agar plate-based hemolysis was tested on 5% sheep blood agar plates (Heipha Diagnostika, Eppelheim, Germany). Sterile circles of Whatman® cards (No. 1, Schleicher & Schuell) with 5.5 mm diameter were placed on the agar plates and inoculated with 2.5 μL of the corresponding lactone/DMSO and 2.5 μL stationary phase culture of S. aureus NCTC 8325 diluted to OD600=0.13. The plates were incubated over night at 37° C. and the diameters of the zones around the bacterial colonies were precisely measured using a vernier caliper. Doses of the compounds required to produce the half maximum effect (ED50) were calculated from curve fittings by Microcal™ Origin 6.0.
# [4] = biological target: T1, CIpP protease from S. aureus NCTC8325 (SaCIpP) (Staphylococcus aureus, UniProt Q2G036); assay: in vitro inhibition of recombinant S. aureus CIpP with SLY-AMC substrate; assay type: biochemical; conditions: inhibitor 2 mM (1000×), 30 min RT; SLY-AMC 200 μM; FIG. 3
# T1 construct: made in house; host or cells: E. coli
# T1 sequence (Q2G036 1-195): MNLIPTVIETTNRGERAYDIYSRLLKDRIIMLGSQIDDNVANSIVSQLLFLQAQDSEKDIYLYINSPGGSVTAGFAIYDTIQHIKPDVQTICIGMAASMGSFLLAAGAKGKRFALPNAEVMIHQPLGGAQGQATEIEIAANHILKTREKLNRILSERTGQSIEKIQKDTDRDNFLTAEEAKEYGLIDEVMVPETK
# Procedure: The CIpP protease from S. aureus NCTC8325 (SaCIpP) was recombinantly overexpressed in E. coli and purified in order to investigate enzyme inhibition using SLY-AMC (N-succinyl-Leu-Tyr-7-amido-4-methylcoumarin) as fluorogenic model substrate.
# Precisely, 9 μl of SaCIpP in buffered solution (final concentration 0.05 mg/ml, 2 μM; buffer: 100 mM NaCl, 20 mM Tris, pH 7.0) were incubated in the presence of 1 μl of various inhibitors (final concentration 2 mM=1000×) for 30 min at room temperature (RT). Subsequently, SLY-AMC was added to a final concentration of 200 μM and the increase in fluorescence due to enzymatic substrate proteolysis was measured using a TECAN GENios Pro™ plate reader at 380/440 nm (excitation/emission) at time intervals of 60 s over 40 min at 37° C. The enzymatic activity was determined as the slope of fluorescence (2=440 nm) over time. As positive controls, the in vivo active beta-lactone compound AVU1 (“U1”; WO 2009/106211) and the in vitro potent CIpP beta-lactone inhibitor D3 (WO 2009/106211) were employed.
# [5] = Assay 4, hemolysin production, assess relative to AVU1
# [6] = Staphylococcus aureus, NCTC8325, Erythrocyte, Assay 3, hemolysin production, assess relative to AVU1
# [7] = Staphylococcus aureus, NCTC8325, Assay 3, read-out: MIC
# [8] = Staphylococcus aureus, NCTC8325, Erythrocyte, Assay 1, hemolysin production
# [9] = Staphylococcus aureus, NCTC8325, Assay 1, read-out: MIC
# [10] = Assay 2, hemolysin production, assess relative to AVU1
smiles,measurement,setting,value
"C#CCCCCCCC[C@H](C(=O)O)[C@H](O)CCc1ccc(C2(C(F)(F)F)N=N2)cc1 (relative stereo) [JS-11_1, (3R*,2S*)-3-Hydroxy-2-(8-noninyl)-5-(4-(3-trifluoromethyl-3H-diazirinyl)-phenyl)-pentanoic acid]",EC50,[1]; [5],3.6 µM
same,MIC,[2]; Assay 4,10 to 50 µM
"C#CCCCCCCC[C@@H](C(=O)O)[C@H](O)CCc1ccc(C2(C(F)(F)F)N=N2)cc1 (relative stereo) [JS-11_2, (3R*,2R*)-3-Hydroxy-2-(8-noninyl)-5-(4-(3-trifluoromethyl-3H-diazirinyl)-phenyl)-pentanoic acid]",EC50,[1]; [5],2.2 µM
same,MIC,[2]; Assay 4,10 to 50 µM
"C#CCCCCCCC[C@H](C(=O)OC)[C@H](O)CCc1ccc(C2(C(F)(F)F)N=N2)cc1 (relative stereo) [JS-14_1, Methyl (3R*,2S*)-3-Hydroxy-2-(8-noninyl)-5-(4-(3-trifluoromethyl-3H-diazirinyl)-phenyl)-pentanoate]",EC50,[1]; [5],166 µM
same,MIC,"[2]; Assay 4, read-out: MIC",>1000 µM
"C#CCCCCCCC[C@H](C(N)=O)[C@H](O)CCc1ccc(C2(C(F)(F)F)N=N2)cc1 (relative stereo) [JS-14_1Amid, (3R*,2S*)-3-Hydroxy-2-(8-noninyl)-5-(4-(3-trifluoromethyl-3H-diazirinyl)-phenyl)-pentanamide]",EC50,[1]; [5],2.3 µM
same,MIC,"[2]; Assay 4, read-out: MIC",>1000 µM
"C#CCCCCCCC[C@@H](C(=O)OC)[C@H](O)CCc1ccc(C2(C(F)(F)F)N=N2)cc1 (relative stereo) [JS-14_2, Methyl (3R*,2R*)-3-Hydroxy-2-(8-noninyl)-5-(4-(3-trifluoromethyl-3H-diazirinyl)-phenyl)-pentanoate]",EC50,[1]; [5],64 µM
same,MIC,"[2]; Assay 4, read-out: MIC",>1000 µM
"C#CCCCCCCC[C@@H](C(N)=O)[C@H](O)CCc1ccc(C2(C(F)(F)F)N=N2)cc1 (relative stereo) [JS-14_2Amid, (3R*,2R*)-3-Hydroxy-2-(8-noninyl)-5-(4-(3-trifluoromethyl-3H-diazirinyl)-phenyl)-pentanamide]",EC50,[1]; [5],2.8 µM
same,MIC,"[2]; Assay 4, read-out: MIC",>1000 µM
"C=CCCCCCCC[C@@H](C(N)=O)[C@H](O)CCCc1ccccc1 (relative stereo) [VK375, (2R*,3R*)-3-Hydroxy-2-(non-8-enyl)-6-phenylhexanamide]",EC50,[1]; [6],1 to 5 µM
same,MIC,"[2]; Assay 3, read-out: MIC",>1000 µM
same,MIC,[2]; [7],> 1000 µM
"NC(=O)[C@H](CCc1ccccc1)[C@H](O)CCc1ccccc1 (relative stereo) [VK403-1, (2R*,3R*)-3-Hydroxy-2-(2-phenylethyl)-5-phenylpentanamide]",EC50,[1]; [6],50 to 100 µM
same,MIC,"[2]; Assay 3, read-out: MIC",>1000 µM
same,MIC,[2]; [7],> 1000 µM
"CCCCCCCCC[C@@H](C(N)=O)[C@H](O)CCc1ccccc1 (relative stereo) [VK453-1, (2R*,3R*)-3-Hydroxy-2-nonyl-5-phenylpentanamide]",EC50,"[1]; Staphylococcus aureus, NCTC8325, Erythrocyte, Assay 2, hemolysin production, assess relative to AVU1",1 to 5 µM
same,MIC,"[2]; Assay 2, read-out: MIC",>1000 µM
same,MIC,"[2]; Staphylococcus aureus, NCTC8325, Assay 2, read-out: MIC",> 1000 µM
"C=CCCCCCCC[C@@H](C(N)=O)[C@H](O)Cc1ccccc1 (relative stereo) [VK508-3, (2R*,3R*)-3-Hydroxy-2-(non-8-enyl)-4-phenylbutanamide]",EC50,[1]; [6],10 to 50 µM
same,MIC,"[2]; Assay 3, read-out: MIC",>1000 µM
same,MIC,[2]; [7],> 1000 µM
"C=CCCCCCCCC(C(=O)O)C(CCc1ccccc1)OC(C)=O (stereo not shown) [AVU1AAc, 3-acetoxy-2-(non-8-enyl)-5-phenylpentanoic acid]",EC50,[1]; [8],2.43 µM
same,inhibition of hemolysis (virulence inhibition) on sheep blood agar,[3],high
same,MIC,[2]; [9],50 to 100 µM
same,inhibition of SaCIpP,[4],inhibit SaCIpP at an at least comparable level as the in vivo active beta-lactone reference compound AVU1
"C=CCCCCCCCC(C(=O)SCC(NC(C)=O)C(=O)OC)C(CCc1ccccc1)OC(C)=O (stereo not shown) [AVU1AAcTE, reference compound]",inhibition of hemolysis (virulence inhibition) on sheep blood agar,[3],only low efficiency and incomplete inhibition of hemolysis
C=CCCCCCCCC(C(=O)OC)C(O)CCc1ccccc1 (stereo not shown) [AVU1AME],inhibition of hemolysis (virulence inhibition) on sheep blood agar,[3],moderate
same,inhibition of SaCIpP,[4],inhibit SaCIpP at an at least comparable level as the in vivo active beta-lactone reference compound AVU1
"C=CCCCCCCCC(C(=O)O)C(O)CCc1ccccc1 (stereo not shown) [AVU1Acid, 3-hydroxy-2-(non-8-enyl)-5-phenylpentanoic acid]",EC50,[1]; [8],1.18 µM
same,inhibition of hemolysis (virulence inhibition) on sheep blood agar,[3],potent virulence inhibitors
same,MIC,[2]; [9],50 to 100 µM
"C=CCCCCCCCC1OC(=O)C1CCc1ccccc1 (stereo not shown) [AVU4, reference compound]",EC50,[1]; [8],435 µM
same,MIC,[2]; [9],> 1000 µM
"C=CCCCCCCC[C@H]1C(=O)O[C@@H]1CCc1cc(F)cc(F)c1 [AVU5, reference compound]",EC50,[1]; [8],16.1 µM
same,MIC,[2]; [9],> 1000 µM
"C=CCCCCCCC[C@H]1C(=O)O[C@@H]1Cc1ccccc1 [AVU6, reference compound]",EC50,[1]; [8],440 µM
same,MIC,[2]; [9],> 1000 µM
"C=CCCCCCCC[C@H]1C(=O)O[C@@H]1CCCc1ccccc1 [AVU7, reference compound]",EC50,[1]; [8],22 µM
same,MIC,[2]; [9],> 1000 µM
"C#CCCCCCCCC(C(=O)O)C(O)CCc1ccc(C(=O)c2ccccc2)cc1 (stereo not shown) [JS-64, 5-(4-Benzoylphenyl)-3-hydroxy-2-(8-noninyl)-pentanoic acid]",EC50,[1]; [10],1 to 5 µM
same,MIC,"[2]; Assay 2, read-out: MIC",>1000 µM
"C#CCCCCCCCC(C(N)=O)C(O)CCc1ccc(C(=O)c2ccccc2)cc1 (stereo not shown) [JS-65, 5-(4-Benzoylphenyl)-3-hydroxy-2-(8-noninyl)-pentanamide]",EC50,[1]; [10],1 to 5 µM
same,MIC,"[2]; Assay 2, read-out: MIC",>1000 µM
